Earlier results in US20210292807A1, “METHOD FOR TESTING ANTIMICROBIAL SUSCEPTIBILITY” (priority 2017, published 2021).
Read-outs that look alike come from different tables or passages of the source.

Test system: Klebsiella isolates
Settings: cited from earlier work

For C[C@@H](O)[C@H]1C(=O)N2C(C(=O)O)=C(S[C@@H]3CN[C@H](C(=O)N(C)C)C3)[C@H](C)[C@H]12 [meropenem], the “MIC, high-level resistance end of the collection's susceptibility phenotypes” value (48 Klebsiella isolates) is given as > 256 mg/L, the “MIC, highly-susceptible end of the collection's susceptibility phenotypes” value (48 Klebsiella isolates) is given as < 1.006 mg/L and the “Referring Lab's MIC” value (isolate 194, Sweden, VIM) is given as ≥32 mg/L. For the same molecule, the “Referring Lab's MIC” value (isolate 374, Sweden, VIM) was >32 mg/L, the “Referring Lab's MIC” value (isolate 3354, Australia) was ≤≤0.25 mg/L and the “Referring Lab's MIC” value (isolate 10924, Sweden, KPC) was 4 mg/L. The “Referring Lab's MIC” value (isolate 18397, Australia) was ≤≤0.25 mg/L, the “Referring Lab's MIC” value (isolate 43288, Australia) was ≤≤0.25 mg/L and the “Referring Lab's MIC” value (isolate 43292, Australia) was ≤≤0.25 mg/L. The “Referring Lab's MIC” value (isolate 43358, Australia) was ≤≤0.25 mg/L, the “Referring Lab's MIC” value (isolate 43854, Australia) was ≤≤0.25 mg/L and the “Referring Lab's MIC” value (isolate 44271, Australia) was ≤≤0.25 mg/L. For the same molecule, the “Referring Lab's MIC” value (isolate 51575, Sweden, ESBL) was 0.064 mg/L, the “Referring Lab's MIC” value (isolate 70708, Sweden, KPC) was 16 mg/L and the “Referring Lab's MIC” value (isolate 71076, Sweden, KPC) was ≥32 mg/L. The “Referring Lab's MIC” value (isolate 200822, Sweden, KPC) was 8 mg/L, the “Referring Lab's MIC” value (isolate 270902, England) was 0.125 mg/L and the “Referring Lab's MIC” value (isolate 500638, Sweden, pAmpC) was ≤0.25 mg/L. For the same molecule, the “Referring Lab's MIC” value (isolate 515870, Sweden, ESBL) was 0.125 mg/L, the “Referring Lab's MIC” value (isolate 2440606, England) was ≤0.06 mg/L and the “Referring Lab's MIC” value (isolate 2880622, England) was ≤0.06 mg/L. For the same molecule, the “Referring Lab's MIC” value (isolate 2880654, England, KPC) was 4 mg/L, the “Referring Lab's MIC” value (isolate 2890369, England) was 1 mg/L and the “Referring Lab's MIC” value (isolate 2980639, England) was 1 mg/L. The “Referring Lab's MIC” value (isolate 3000770, England, NDM-1) was >32 mg/L, the “Referring Lab's MIC” value (isolate 3040820, England, pAmpC) was ≤0.06 mg/L and the “Referring Lab's MIC” value (isolate 3080800, England, KPC) was >32 mg/L. For the same molecule, the “Referring Lab's MIC” value (isolate ATCC 700603, USA) was ≤≤0.25 mg/L, the “Referring Lab's MIC” value (isolate ATCC BAA 1705, USA, KPC) was 8 mg/L and the “Referring Lab's MIC” value (isolate ATCC BAA 1706, USA) was ≤≤0.25 mg/L. The “Referring Lab's MIC” value (isolate K1, Australia, OXA-181) was 64 mg/L, the “Referring Lab's MIC” value (isolate K2, Australia, OXA-181) was 64 mg/L and the “Referring Lab's MIC” value (isolate K8, Australia, NDM-1) was >256 mg/L. For the same molecule, the “Referring Lab's MIC” value (isolate K14, Australia, KPC) was 256 mg/L, the “Referring Lab's MIC” value (isolate K16, Australia, IMP - 4) was 2 mg/L and the “Referring Lab's MIC” value (isolate K23, Australia, IMP - 4) was 0.5 mg/L. For the same molecule, the “Referring Lab's MIC” value (isolate KS1, Sri Lanka, OXA-181) was 1 mg/L, the “Referring Lab's MIC” value (isolate KS2, Sri Lanka, OXA-181) was ≥32 mg/L and the “Referring Lab's MIC” value (isolate KS17, Sri Lanka, OXA-181) was ≥32 mg/L. For the same molecule, the “Referring Lab's MIC” value (isolate KS23, Sri Lanka, OXA-181) was ≥32 mg/L and the “Referring Lab's MIC” value (isolate N17, Sweden, NDM-1) was ≥32 mg/L.
